Experimental data from patent US10206394B2, “Herbicidal compounds” (Syngenta Participations AG, priority 2014, dated 2019).
Where two headings read alike, the source gives them in different places.

How the values were obtained:
Assay type in all cases: in vivo
[1] = system: Echinochloa crus-galli (ECHCG); test: Glasshouse assay for herbicidal activity (pre- and post-emergence), percentage phytotoxicity; settings: Echinochloa crus-galli, Rate 250 g/ha, 100%=total damage, 0%=no damage
Procedure, shortened: (§1)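 Potted test plants in standard soil received the compound pre-emergence (day 1) or post-emergence (about day 12). Evaluation: visual damage score from 0% (none) to 100% (total), 15 days after application post-emergence, 20 days pre-emergence.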

[2] = system: Alopecurus myosuroides (ALOMY); test: as above; settings: Alopecurus myosuroides, Rate 250 g/ha, 100%=total damage, 0%=no damage
Procedure, shortened: as §1

Lolium perenne (LOLPE) = test: as above; settings: Lolium perenne, Rate 250 g/ha, 100%=total damage, 0%=no damage
Procedure, shortened: as §1

Avena fatua (AVEFA) = test: as above; settings: Avena fatua, Rate 250 g/ha, 100%=total damage, 0%=no damage
Procedure, shortened: as §1

[3] = system: Winter Wheat variety 'Hereward'; test: Glasshouse assay for crop safety, post-emergence, +/- safener cloquintocet-mexyl (CQC), percentage phytotoxicity; settings: 250 g/ha, evaluated after 13 days, 100=total damage, 0=no damage; for Post-emergence Crop Selectivity, percentage phytotoxicity, Wheat +CQC: with safener cloquintocet-mexyl (CQC) seed treatment 0.5 g/kg seed; for Post-emergence Crop Selectivity, percentage phytotoxicity, Wheat − CQC: without safener cloquintocet-mexyl (CQC)
Description: Test—Glasshouse Assay for Crop Safety.
Seeds of the Winter Wheat variety ‘Hereward’ were seed treated with a wettable powder formulation of the cereal herbicide safener, cloquintocet mexyl, at a rate of 0.5 grams per kilogram of dry seed prior to the initiation of glasshouse testing. Three seeds were sown per 1.5 inch plastic pot into a sandy loam soil at a depth of 1 cm, 8 days prior to application of the test compounds and was watered and grown under controlled conditions in a glasshouse (at 24/16° C., day/night; 14 hours light; 65% humidity). The plants were sprayed Post-emergence with an aqueous spray solution derived from the formulation of the technical active ingredient in acetone/water (50:50) solution containing 0.5% Tween 20 (polyoxyethelyene sorbitan monolaurate, CAS RN 9005-64-5).
The test plants were then grown in a glasshouse under controlled conditions (at 24/16° C., day/night; 14 hours light; 65% humidity) and watered twice daily. After 13 days for pre and post-emergence, the test was evaluated (100=total damage to plant; 0=no damage to plant).

[4] = post-emergence, 360 h, post-emergence, assessed visually 15 DAA, read-out: Post-emergence herbicidal activity (percentage phytotoxicity) ECHCG POST
[5] = pre-emergence, 480 h, pre-emergence, assessed visually 20 DAA, read-out: Pre-emergence herbicidal activity (percentage phytotoxicity) ECHCG PRE
[6] = post-emergence, 360 h, post-emergence, assessed visually 15 DAA, read-out: Post-emergence herbicidal activity (percentage phytotoxicity) ALOMY POST
[7] = pre-emergence, 480 h, pre-emergence, assessed visually 20 DAA, read-out: Pre-emergence herbicidal activity (percentage phytotoxicity) ALOMY PRE
[8] = post-emergence, 360 h, post-emergence, assessed visually 15 DAA, read-out: Post-emergence herbicidal activity (percentage phytotoxicity) LOLPE POST
[9] = pre-emergence, 480 h, pre-emergence, assessed visually 20 DAA, read-out: Pre-emergence herbicidal activity (percentage phytotoxicity) LOLPE PRE
[10] = post-emergence, 360 h, post-emergence, assessed visually 15 DAA, read-out: Post-emergence herbicidal activity (percentage phytotoxicity) AVEFA POST
[11] = pre-emergence, 480 h, pre-emergence, assessed visually 20 DAA, read-out: Pre-emergence herbicidal activity (percentage phytotoxicity) AVEFA PRE

| SMILES | pest or weed control at 250 g/ha [1, 4] [%] | pest or weed control at 250 g/ha [1, 5] [%] | pest or weed control at 250 g/ha [2, 6] [%] | pest or weed control at 250 g/ha [2, 7] [%] | pest or weed control at 250 g/ha (Lolium perenne (LOLPE); [8]) [%] | pest or weed control at 250 g/ha (Lolium perenne (LOLPE); [9]) [%] | pest or weed control at 250 g/ha (Avena fatua (AVEFA); [10]) [%] | pest or weed control at 250 g/ha (Avena fatua (AVEFA); [11]) [%] | Post-emergence Crop Selectivity, percentage phytotoxicity, Wheat +CQC [3] [%] | Post-emergence Crop Selectivity, percentage phytotoxicity, Wheat − CQC [3] [%] |
| --- | --- | --- | --- | --- | --- | --- | --- | --- | --- | --- |
| Cc1cc(C)c(C2C(=O)CC(CC(=O)NC3CCCC3)C2=O)c(C)c1 (centres unmarked) [Compound A21] | 80 | 80 | 80 | 70 | 80 | 80 | 70 | 50 | 0 | 60 |
| Cc1cc(C)c(C2C(=O)CC(CC(=O)N3CCCCC3)C2=O)c(C)c1 (centres unmarked) [Compound A22] | 90 | 100 | 80 | 60 | 80 | 70 | 60 | 30 | 50 | 60 |
| CCCN(C)C(=O)CC1CC(=O)C(c2c(C)cc(C)cc2C)C1=O (centres unmarked) [Compound A25] | 90 | 80 | 70 | 70 | 90 | 90 | 70 | 70 | 0 | 40 |
| CCCNC(=O)CC1CC(=O)C(c2c(C)cc(C)cc2C)C1=O (centres unmarked) [Compound A26] | 80 | 80 | 80 | 80 | 90 | 100 | 80 | 70 | 40 | 70 |
| CCC(C)(C)NC(=O)CC1CC(=O)C(c2c(C)cc(C)cc2C)C1=O (centres unmarked) [Compound A27] | 80 | 80 | 80 | 70 | 80 | 80 | 80 | 70 | 20 | 30 |
| Cc1cc(-c2ncc(Cl)cc2F)cc(C)c1C1C(=O)CC(CC(=O)NC(C)(C)C)C1=O (centres unmarked) [Compound A39, N-tert-butyl-2-[3-[4-(5-chloro-3-fluoro-2-pyridyl)-2,6-dimethyl-phenyl]-2,4-dioxo-cyclopentyl]acetamide] | 100 | 100 | 100 | 100 | 100 | 100 | 100 | 100 | 50 | 80 |
| C#Cc1cc(C)c(C2C(=O)CC(CC(=O)NC(C)(C)C)C2=O)c(C)c1 (centres unmarked) [Compound A43] | 90 | 100 | 100 | 100 | 90 | 100 | 90 | 100 | 50 | 90 |
| CC#Cc1cc(C)c(C2C(=O)CC(CC(=O)NCC(=O)C(C)(C)C)C2=O)c(C)c1 (centres unmarked) [Compound A59] | 90 | 90 | 90 | 100 | 70 | 70 | 90 | 70 | 50 | 80 |
| Cc1cc(-n2cc(Cl)cn2)cc(C)c1C1C(=O)CC(CC(=O)NC(C)(C)C)C1=O (centres unmarked) [Compound A67, N-tert-butyl-2-[3-[4-(4-chloropyrazol-1-yl)-2,6-dimethyl-phenyl]-2,4-dioxo-cyclopentyl]acetamide] | 100 | 90 | 80 | 100 | 70 | 90 | 80 | 90 | 0 | 70 |
| Cc1cc(-n2cc(Cl)cn2)cc(C)c1C1C(=O)CC(CC(=O)NC2CCCC2)C1=O (centres unmarked) [Compound A70] | 90 | 100 | 90 | 70 | 70 | 70 | 70 | 70 | 20 | 70 |
| Cc1cc(-n2cc(Cl)cn2)cc(C)c1C1C(=O)CC(CC(=O)NC2(c3ccccn3)CC2)C1=O (centres unmarked) [Compound A73] | 90 | 90 | 70 | 70 | 40 | 30 | 80 | 10 | 20 | 80 |
| Cc1cc(-c2ccc(F)cn2)cc(C)c1C1C(=O)CC(CC(=O)NC(C)(C)C)C1=O (centres unmarked) [Compound A80] | 100 | 100 | 100 | 100 | 100 | 100 | 100 | 90 | 20 | 70 |
| Cc1cc(-c2ncc(F)cc2F)cc(C)c1C1C(=O)CC(CC(=O)NC(C)(C)C)C1=O (centres unmarked) [Compound A85] | 100 | 90 | 100 | 100 | 90 | 100 | 100 | 80 | 10 | 80 |
| Cc1cc(-c2ncc(F)cn2)cc(C)c1C1C(=O)CC(CC(=O)NCc2cccc(Cl)c2)C1=O (centres unmarked) [Compound A138] | 100 | 100 | 90 | 90 | 100 | 100 | 100 | 100 | 40 | 70 |
